Experiment [1] concerns p-STAT1, p-STAT3, p-STAT5 in whole blood cell subsets. The experiment is described as follows: SCNP of cytokine-induced JAK/STAT signaling in whole blood of healthy donors. Type of experiment: cell-based, human. The method, then:
Method: Whole blood from 11 healthy donors (20-65 yrs, 7 males, 4 females, 8 Caucasians, 2 Hispanics, 1 East Asian) was stimulated at 37° C. in 96-well plates with a low, medium, and high dose of GM-CSF, IFN-α, IL-27 and IL-6, each added separately, as described in Example 5. For each dose, a stimulation time course was run with 6 time points between 3 and 45 minutes. […] The SCNP assay was performed using a fluorophore-labeled antibody cocktail to simultaneously measure signaling in six distinct cell populations, including: neutrophils, CD20+ B cells, CD3+CD4+ T cells, CD3+CD4− T cells (CD8 enriched), CD3−CD20− lymphocytes (NK cell enriched), and CD14+ monocytes. The median fluorescent intensity of phospho (p)-STAT1(Y701), p-STAT3(Y705), and p-STAT5(Y694) were measured in each defined cell population for each experimental condition.
Kinetic response to varying concentrations of modulators was investigated in normal samples (i.e. samples from persons who have no diagnosis of disease). 11 normal samples were donated with informed consent by Nodality Inc. employees and processed at Nodality Inc. in South San Francisco, Calif. The samples were treated with 4 different modulators (GM-CSF, IL-27, IFNa and IL-6) at 4 different concentrations of the modulator and activation levels of pStat1, pStat3 and pStat5 were measured at different time points. Activation levels were measured at 3, 5, 10, 15, 30 and 45 minutes using flow cytometry-based single cell network profiling. The concentrations of the stimulators are tabulated below:
Activation levels of different cell surface markers were also profiled using single cell network profiling and used in conjunction with gating to segregate the cells into discrete cell populations. In the gating analysis, SSC-A and FSC-A were first used to segregate lymphocytes from non-lymphocytes. CD14 and CD4 were then used to segregate the non-lymphocytes into populations of neutrophils and CD14+ cells (monocytes). CD3 and CD20 were then used to segregate the lymphocytes into populations of CD20+(B Cells), CD3+(T Cells) and CD20-CD3-cells. CD4 was used to segregate the CD3+ T cells into populations of CD3+CD4- and CD3+CD4+ T cells.

In another experiment the test system is breast cancer patients. The experiment is described as follows: clinical study NCT01401062, Fresolimumab with radiotherapy in breast cancer: PBMC IMR expression, signaling, response. Type of experiment: in vivo, human. The method, then:
PBMC samples were collected from 7 healthy donors and 15 breast cancer patients enrolled in a clinical study NCT01401062, evaluating Fresolimumab (anti-TGF □) at 1 or 10 mg/kg IV in combination with radiotherapy (RT). Samples were cryopreserved then prepped and analyzed. Breast cancer donor samples were pre- and post-treatment. Basal expression of immunomodulatory receptors (IMRs) and short term signaling in response to modulation were profiled. Signaling following exposure to in vitro chemotherapeutic agents was also examined. Response to therapy in this trial was poor and therefore associations with clinical reponse was observational only.
Analysis of IMR expression and SCNP (modulated and unmodulated) was performed as detailed in previous Examples and in the specification.

Another experiment relates to TGFb modulated signaling. The experiment is described as follows: in vitro Fresolimumab on TGFb modulated signaling in breast cancer samples. Type of experiment: cell-based, human. How it is done: (§1) In this Example, samples of peripheral blood mononuclear cells (PBMCs) from breast cancer patients and from healthy donors were analyzed for IMR expression and by single cell network profiling, both modulated and unmodulated. Samples were taken before and after treatment in the breast cancer patients. IMR expression was profiled and correlated with immune signaling; differences in immune signaling by SCNP in pre- and post-treatment samples was investigated; the in vitro effects of immune checkpoint inhibitors on signaling in pre- and post-treatment samples was investigated; and the in vitro effects of Fresolimumab on TGFb modulated signaling in pre-treatment samples was profiled.

In experiment [2] the test system is TCR→p-ERK/p-AKT in T cells. The experiment is described as follows: in vitro Keytruda effect on TCR signaling in PBMC of breast cancer patients and healthy donors. Type of experiment: cell-based, human. How it is done: as §1
PBMC samples were collected from 7 healthy donors and 15 breast cancer patients enrolled in a clinical study NCT01401062, evaluating Fresolimumab (anti-TGF □) at 1 or 10 mg/kg IV in combination with radiotherapy (RT). Samples were cryopreserved then prepped and analyzed. Breast cancer donor samples were pre- and post-treatment. Basal expression of immunomodulatory receptors (IMRs) and short term signaling in response to modulation were profiled. […]
In addition, T cell receptor (TCR) signaling was studied using SCNP. The TCR was stimulated, as described elsewhere herein, and downstream readouts, in particular, p-ERK and p-AKT, p-PLCg2, p-CD3z, p-s6, and IkB were measured.

For experiment [3], the system named is immune signaling pathways in PBMC subsets. The experiment in a line: SCNP of PBMC from melanoma patients pre- and post-ipilimumab treatment. Type of experiment: in vivo, human. The conditions noted are these: for IL-15→p-STAT5 signaling in post-treatment samples: CD4− T cells, vs healthy and untreated donor samples. The method, then: Methods: 3 healthy and 13 melanoma patient cryopreserved samples, including 7 collected pre-treatment, and 6 collected post-treatment, were analyzed by SCNP. […] Cells were assessed for viability, cell subset frequencies and signaling in response to different modulators. A node is defined as combination of modulator and intracellular readout (e.g. IL-6→p-STAT3). Cytokine and TCR- or Fc[…]R-induced activation of STAT1, 3, 5, CD3 □ and Erk was evaluated in multiple immune cell populations and comparisons made based on disease, treatment time point and clinical responses.

Experiment [4] has as its system CTLA-4 interaction with CD80/86 in T cells. The experiment in a line: in vitro T cell activation on αCD3-coated plate with ipilimumab, 48 hr. Type of experiment: cell-based. The settings on record: PBMCs on αCD3-coated plate, vs isotype control. The method, then: In this example, PBMCs were added to a αCD3-coated plate to induce T cell activation, then ipilimumab was added to block CTLA-4 interaction with CD80/86. Isotype control was added to a reference well. The cells were incubated at 37° C. for 48 hr, then fixed, permeabilized, stained, and data acquired as described in the Examples above. Cells were gated by CD3, CD4, and CD8, and the readouts were IL-2, TNF-α, Cyclin A2, and CTLA-4. Ipilimumab augmented CTLA-4 upregulation, cytokine production, and proliferation.

For another experiment, the system named is metastatic melanoma. The conditions noted are these: ipilimumab alone compared to gp100 vaccine alone; previously treated metastatic melanoma; p=0.003; cited from earlier work.
The test system of experiment [5] is p-Stat1, p-Stat3, p-Stat4, p-Stat5, p-Stat6, p-p38 in PBMC subsets. The experiment is described as follows: SCNP of IFN-α signaling in PBMC from healthy donors. The experiment is classed as cell-based, human. The method, then: Methods: IFN-α-mediated signaling responses were measured by SCNP in PBMC samples from 12 healthy donors. PBMCs were processed for flow cytometry by fixation and permeabilization followed by incubation with fluorochrome-conjugated antibodies that recognize extracellular lineage markers and intracellular signaling molecules. The levels of several phospho-proteins (p-Stat1, p-Stat3, p-Stat4, p-Stat5, p-Stat6, and p-p38) were measured in multiple cell populations (CD14+ monocytes, CD20+ B cells, CD4+CD3+ T cells, and CD4−CD3+ T cells) at 15 minutes, 1, 2 and 4 hours post IFN-α exposure as described in Example 6.

[6] abbreviates: IL-6 stimulation, CD4+ T cells and monocytes, whole blood.

“Also recorded” adds a separate entry of the source.

With IL-6: cytokine modulator, the “time at which signal resolution fell to baseline levels” value in experiment [1] (IL-6, monocytes (CD4+ T cells sustained)) was determined as 45 min. In experiment [1] (setting [6]), the “time of peak p-STAT1 and p-STAT5” value was 10 to 15 min; the “time of peak p-STAT3 levels” value is 3 min. In experiment [1] (compared to CD4+ T cells and monocytes), the “IL-6 induced activation in neutrophils” value is given as “very low”. In addition, the “cell subsets showing induced signaling” value in experiment [1] (whole blood, six cell populations) was “only observed in CD4+ T cells and monocytes”.
For the substance “Fresolimumab: anti-TGF, a TGFb inhibitor”, the response to therapy entry in the experiment on breast cancer patients (Fresolimumab in combination with radiotherapy) is recorded as “poor”. Besides, in the experiment on breast cancer patients (breast cancer patients' PBMC), the “PD-L1 expression in NK cells over the course of treatment” value is listed as “trend was observed toward increasing PD-L1 expression” and the “TIM-3 expression in monocytes with treatment” value is listed as “decrease in TIM-3 expression”. In the experiment with breast cancer patients (higher dose (1 or 10 mg/kg IV) of Fresolimumab, patient PBMC), the “IMR expression patterns by dose” value is “trend toward higher IMR expression patterns”. The “TCR mediated signaling by dose” value in the experiment with breast cancer patients (higher dose of Fresolimumab, patient PBMC) is on record as “trend toward reduced TCR mediated signaling”. Also, in the experiment with TGFb modulated signaling, the “in vitro Fresolimumab activity” value is listed as “weak”.
For “Keytruda: checkpoint blockade agent that reduces communication through the PD-1 pathway”, the “effect on TCR signaling (p-ERK and p-AKT readouts)” value in experiment [2] (PD-1 negative (low PD-1 expression)) is “no effect”; in experiment [2] (PD-1 positive (high expression) T cells) it was “clear trend toward an increase in signaling; also recorded: increased TCR→AKT and p-ERK”.
For “ipilimumab: fully human monoclonal antibody that blocks cytotoxic T-lymphocyte-associated antigen 4 (CTLA-4)-mediated T-cell suppression”, in experiment [3], the “IL-15→p-STAT5 signaling in post-treatment samples” value is given as “diminished”. Moreover, the “IL-15→p-STAT5 signaling in post-treatment samples” value in experiment [3] (listed as Ipilimumab) is reported as “reduced IL-15→p-STAT5 signaling”. The “TCR→p-Erk, TCR→p-CD3z signaling in post-treatment samples” value in experiment [3] (CD45RA+ but not CD45RA− CD4+ and CD4− subsets, vs healthy donors and pre-treatment melanoma samples) was “diminished”. Also, in experiment [4], the CTLA-4 upregulation result is listed as “augmented”; the “cytokine production (IL-2, TNF-α)” value is on record as “augmented”; the “proliferation (Cyclin A2)” value was “augmented”. Moreover, the “hazard ratio for death” value in the experiment on metastatic melanoma was 0.66.
On to GM-CSF: cytokine modulator, for which the GM-CSF→p-STAT5 signal termination result in experiment [1] (monocytes, neutrophils maintained persistent p-STAT5) is on record as “efficient signal termination in monocytes”.
Regarding IFN-α, in experiment [1] (IFN-α stimulation, all cell subsets), the “time of peak activation of all 3 STAT proteins” value was 10 min. The “signaling resolution in monocytes” value in experiment [1] (IFN-α, signal sustained in all other subsets) is given as “almost complete at 45 minutes”. Moreover, in experiment [5] (PBMC subsets), the “activation of p-Stat4” value is “detected in T cell subsets (both CD4+ and CD4− T cells), but not in monocytes or B cells”. For the same substance, the “time of peak response for activation of p-Stat4, p-Stat6, p-p38” value in experiment [5] (majority of cell types, PBMC) worked out at 1 h. In experiment [5] (most cell types, PBMC), the “time of peak response for activation of p-Stat1, p-Stat3, p-Stat5” value was found to be 15 min.
